“Also recorded” adds a separate entry of the source.
How the values were obtained:
Format in all cases: in vivo
[1] = system: cardiomyocytes isolated from the heart of WT and Ptpn11^D61G/+ mice; test: Ca2+ excitation-contraction coupling of cardiomyocytes isolated from treated mice
Method: (§1) Vehicle-injected mice served as control.
Enzymatic Digestion of Cardiac Tissue for Single-Cell Analysis—Cardiomyocytes from 8 week old mice were isolated by a Langendorff procedure, modified from Xianghua Xu, et al. J Vis Exp. 2009; (28):1308. In brief, the hearts were quickly excised and cannulated to a Langendorff apparatus where they were perfused with 37° C. Ca^2+-free perfusion buffer (in 25 mM HEPES, 118 mM NaCl, 4.8 mM KCl, 2.0 mM KH2PO4, 2.55 mM MgSO4, 10 mM BDM and 10 mM Glucose). To digest the tissue, the heart was perfused with buffer containing 0.5 mg/mL Liberase TH (Roche Applied Science, Penzberg, Germany). After ˜10 min, the heart was removed from the Langendorff apparatus and the right ventricle and atria removed. The left ventricle was isolated, cut into small pieces and digested further at 37° C. digestion solution with mechanical agitation for 5-10 min, and then gently triturated to liberate individual cells. The remaining tissue chunks were transferred to fresh digestion buffer and the process was repeated up to 6 times, or until all tissue was digested. Cells were removed from collagenase by gentle centrifugation and resuspended in several washing steps of buffer containing FBS and gradually reintroduced to calcium (0.05-1.1 mM) through step-wise additions of concentrated CaCl2 solution. Cells were allowed to rest for at least 1 h before imaging.
Cardiomyocyte Functional Characterization—Cardiomyocytes were imaged in Tyrodes solution ([…] NaCl: 140, KCl: 5.4, CaCl2:1.8, MgCl2:1, HEPES: 25 mM, glucose: 10 mM). Cell pellets were loaded for 15 minutes in the dark with Tyrodes supplemented with 2.5 μM Fura-2 AM complimented with pluronic acid (20% w/v), for calcium fluorescence imaging. After 15 minutes of loading, the cells were resuspended in fresh Tyrodes solution and allowed to settle until imaging. Cardiomyocyte Ca^2+ transients and unloaded shortening contractions were measured using an inverted microscope (Nikon Eclipse, Chiyoda, Tokyo) equipped with a temperature controlled perfusion bath (Cell MicroControls, Norfolk, Va.) under constant perfusion of 37° C. Tyrodes solution. Cells were field-stimulated at 1 Hz. Contractile events were imaged in real-time using a sarcomere length camera system (HVSL, Aurora Scientific, Ontario, Canada). Only rod-shaped cells with well-defined sarcomere striations that contracted when stimulated were selected for measurement. Sarcomere length was measured and recorded for ten consecutive beats and subsequently averaged across beats to produce a single waveform. Calcium transient measurements were recorded simultaneously using alternating excitation wavelengths of 340 and 380 nm generated at an overall rate of 100 Hz by a RatioMaster fluorescence system (PTI, Birmingham, N.J.). Fluorescence emission was filtered at a center wavelength of 510 nm and quantified to obtain responses to the alternating excitation wavelengths (F340 and F380, respectively). Ca^2+ transients were reported as the interpolated ratio of the two fluorescence intensities (F340/F380) at each time point. Data were recorded using a DAP5216a data acquisition system (Microstar Laboratories, Bellevue, Wash.) and processed using custom software written in MATLAB (MathWorks, Natick, Mass.). Peak sarcomere length shortening (Peak SL shortening), time to peak shortening (TTP), time to 50% re-lengthening (RT50), the magnitude of the calcium transient (Ca^2+ Rmag:Max F340/F380−Min F340/F380) and the rate of calcium decay, Tau (TauCa2+) were computed.

Ptpn11^D61G/+ mice [2] = test: Growth, facial dysmorphia and splenomegaly after postnatal dasatinib; conditions: postnatal 0.1 mg/kg/day, NS mice
Excerpt: Differences within treatment groups were significant (p<0.001, Two-way ANOVA test) from 3-weeks to 8-weeks old. FIG. 19b is a graph showing body weight measured at P42. FIG. 19c is a graph showing body length measured at P42. FIG. 19d is a graph showing body weight measured at P56. […]. FIG. 19e is a graph showing body length measured at P56.
(n=10˜16 for each group; Two-way ANOVA test).
All data represent mean±SEM. *, p<0.05; ***, p<0.001.
as §1

Ptpn11^D61G/+ mice [3] = test: Heart tissue immunoblot for SERCA2A, Troponin I, Troponin T; conditions: postnatal dasatinib; NS mice
Excerpt: Representative traces of cardiomyocyte dynamics for calcium transient traces (top) and their corresponding sarcomere leng shortening traces (bottom). FIG. 16b is a graph showing a summary of the data of relative calcium release (Rmag Ca^2+). FIG. 16c is a graph showing the fraction of sarcomere shortening (n=111˜162 cells from 3 mice for each group). FIG. 16d is an image showing heart tissue immunoblotted with anti-SERCA2A, Troponin I (tTnI), Troponin T (tTnT) and Tubulin antibodies. […] FIG. 16e is a graph showing SERCA2A expression. FIG. 16f is a graph showing Troponin I expression. FIG. 16g is a graph showing Troponin T. Expression was statistically assessed after normalization with tubulin (n=6 for each group).
Immunoprecipitation and Immunoblotting—Cells or heart tissue were lysed on ice in lysis buffer (25 mM Tris-HCl, pH 7.4, 136 mM NaCl, 1 mM CaCl2, 1 mM MgCl2, 1% Nonidet P-40, 1 mM Na3VO4, 10 mM NaF, 1 mM benzamidine, 1 mM PMSF, 1 μg/ml pepstatin A, 5 μg/ml aprotinin, and 5 μg/ml leupeptin). Cell or tissue lysates were incubated at 4° C. for 30 min and clarified by centrifugation at 14,000 rpm at 4° C. for 10 min. Protein concentration was determined using the BCA reagent according to the manufacturer's instructions (Pierce). For immunoprecipitations, 500 μg of lysate was incubated with 1 μg of indicated antibodies at 4° C. for overnight. […]

[4] = postnatal dasatinib, Ptpn11D61G/+ mice, P56, n = 162 cells, n = 3 mice, Mean ± SEM
[5] = postnatal dasatinib, WT mice, P56, n = 111 cells, n = 3 mice, Mean ± SEM

Cc1nc(Nc2ncc(C(=O)Nc3c(C)cccc3Cl)s2)cc(N2CCN(CCO)CC2)n1.O [Dasatinib, N-(2-chloro-6-methylphenyl)-2-[[6-[4-(2-hydroxyethyl)-1-piperazinyl]-2-methyl-4-pyrimidinyl]amino]-5-thiazole carboxamide monohydrate] was tested, and the “Ca2+ signaling during excitation-contraction coupling” value ([1]; cardiomyocytes from dasatinib treated Ptpn11D61G/+ mice) was “normal”, the “difference in relative calcium release (Rmag Ca2+) between NS and wild type cardiomyocytes” value ([1]; postnatal dasatinib, NS mice) was “substantially ameliorated” and the “differences in fractional shortening of sarcomeres between NS and wild type cardiomyocytes” value ([1]; postnatal dasatinib, NS mice) was “completely restored”. For the same molecule, the “Ca^2+ TTP (Time to peak, F340/380)” value [1, 4] was 43.22 ± 0.90 ms, the “Diastolic Ca^2+ (MinF340/380)” value [1, 4] was 0.98 ± 0.01 and the “Peak Shortening” value [1, 4] was 6.59 ± 0.18 %. For the same molecule, the “Rmag Ca^2+ (ΔF340/380)” value [1, 4] was 0.14 ± 0.01, the “Shortening RT50 (Time from peak tension to 50% relaxation)” value [1, 4] was 37.02 ± 0.62 ms and the “Shortening RT90 (Time from peak tension to 90% relaxation)” value [1, 4] was 99.24 ± 3.23 ms. For the same molecule, the “Shortening TTP (Time to peak)” value [1, 4] was 69.32 ± 0.79 ms, the “Systolic Ca^2+ (Max F340/380)” value [1, 4] was 1.12 ± 0.01 and the “Tau Ca^2+” value [1, 4] was 116.52 ± 2.36 ms. The “Ca^2+ TTP (Time to peak, F340/380)” value [1, 5] was 42.75 ± 1.21 ms, the “Diastolic Ca^2+ (MinF340/380)” value [1, 5] was 0.94 ± 0.01 and the “Peak Shortening” value [1, 5] was 6.04 ± 0.23 %. For the same molecule, the “Rmag Ca^2+ (ΔF340/380)” value [1, 5] was 0.11 ± 0.01, the “Shortening RT50 (Time from peak tension to 50% relaxation)” value [1, 5] was 41.11 ± 0.96 ms and the “Shortening TTP (Time to peak)” value [1, 5] was 71.52 ± 0.90 ms. For the same molecule, the “Systolic Ca^2+ (Max F340/380)” value [1, 5] was 1.06 ± 0.01, the “Tau Ca^2+” value [1, 5] was 105.85 ± 2.35 ms and the “growth (body weight, body length)” value (Ptpn11^D61G/+ mice [2]) was “did not improve”. The facial dismorphism (Ptpn11^D61G/+ mice [2]; monohydrate) was “did not improve”, the splenomegaly (Ptpn11^D61G/+ mice [2]; monohydrate) was “did not improve; also recorded: did not rescue” and the “SERCA2A protein expression in cardiac tissue” value (Ptpn11^D61G/+ mice [3]) was “completely normalized”. For the same molecule, the “TnT and TnI expression levels in heart” value (Ptpn11^D61G/+ mice [3]) was “returned to those equivalent to vehicle-treated wild type mice”.

Source: patent publication US10471059B2, “Compositions and methods of using tyrosine kinase inhibitors” (YALE UNIVERSITY, priority 2015, dated 2019)
